According to ChEMBL document CHEMBL1152653, “5-Nitrofuranes and 5-nitrothiophenes with anti-Trypanosoma cruzi activity and ability to accumulate squalene” (Bioorg Med Chem, 2009):
pIC50: −log10 of the molar value. In brackets after ≈: the same amount, converted by molar mass.

Columns and labels:
Trypanosoma cruzi [1] = experiment: Antitrypanosomal activity against Trypanosoma cruzi tulahuen 2 after 5 days; assay type: functional; conditions: tulahuen 2, 120 h, read-out: ID50 (the source's name)
Trypanosoma cruzi [2] = experiment: Increase in squalene biosynthesis in Trypanosoma cruzi tulahuen 2 epimastigotes at ID50 concentration per 8 x 10^6 cells/ml after 120 mins by HPLC analysis (Rvb=0.6 to 2.1 ug/ml); assay type: functional
Trypanosoma cruzi [3] = experiment: Antitrypanosomal activity against Trypanosoma cruzi CL Brener after 5 days; assay type: functional; conditions: 120 h, read-out: ID50 (the source's name)
[4] = Cytotoxicity against mouse J774 cells after 48 hrs by MTT assay; assay type: cell-based; conditions: read-out: ID50
[5] = Selectivity index, ratio of IC50 for mouse J774 cells to ID50 for Trypanosoma cruzi tulahuen 2; assay type: toxicity, cell-based; conditions: J774 cells versus Trypanosoma cruzi Tulahuen 2, read-out: Selectivity Index
Candida albicans = experiment: Antifungal activity against Candida albicans ATCC 10231 after 48 hrs by broth microdilution technique; assay type: functional; conditions: ATCC 10231, 48 h
Candida tropicalis = experiment: Antifungal activity against Candida tropicalis C131-2000 after 48 hrs by broth microdilution technique; assay type: functional; conditions: C131-2000, 48 h
Saccharomyces cerevisiae = experiment: Antifungal activity against Saccharomyces cerevisiae ATCC 9763 after 48 hrs by broth microdilution technique; assay type: functional; conditions: ATCC 9763, 48 h
Cryptococcus neoformans = experiment: Antifungal activity against Cryptococcus neoformans ATCC 32264 after 48 hrs by broth microdilution technique; assay type: functional; conditions: ATCC 32264, 48 h
Aspergillus niger = experiment: Antifungal activity against Aspergillus niger ATCC 9029 after 48 hrs by broth microdilution technique; assay type: functional; conditions: ATCC 9029, 48 h
Aspergillus fumigatus = experiment: Antifungal activity against Aspergillus fumigatus ATCC 26934 after 48 hrs by broth microdilution technique; assay type: functional; conditions: ATCC 26934, 48 h
Aspergillus flavus = experiment: Antifungal activity against Aspergillus flavus ATCC 9170 after 48 hrs by broth microdilution technique; assay type: functional; conditions: ATCC 9170, 48 h
Nannizzia gypsea = experiment: Antifungal activity against Microsporum gypseum C 115 after 48 hrs by broth microdilution technique; assay type: functional; conditions: C 115, 48 h
Trichophyton rubrum = experiment: Antifungal activity against Trichophyton rubrum C113 after 48 hrs by broth microdilution technique; assay type: functional; conditions: C113, 48 h
[6] = test system: Trichophyton mentagrophytes; experiment: Antifungal activity against Trichophyton mentagrophytes ATCC 9972 after 48 hrs by broth microdilution technique; assay type: functional; conditions: ATCC 9972, 48 h
Trypanosoma cruzi [7] = experiment: Decrease in ergosterol biosynthesis in Trypanosoma cruzi tulahuen 2 epimastigotes at ID50 concentration per 8 x 10^6 cells/ml after 120 mins by HPLC analysis (Rvb=6.8 +/- 0.5 ug/ml); assay type: functional
Trypanosoma cruzi [8] = experiment: Ratio of ID50 for drug to ID50 for nifurtimox against Trypanosoma cruzi tulahuen 2 after 5 days; assay type: functional

| SMILES | pIC50 (Trypanosoma cruzi [1]) | Activity (Trypanosoma cruzi [2]) | pIC50 (Trypanosoma cruzi [3]) | CC50 at 48 h [4] | selectivity ratio [5] | MIC (Candida albicans) | MIC (Candida tropicalis) | MIC (Saccharomyces cerevisiae) | MIC (Cryptococcus neoformans) | MIC (Aspergillus niger) | MIC (Aspergillus fumigatus) | MIC (Aspergillus flavus) | MIC (Nannizzia gypsea) | MIC (Trichophyton rubrum) | MIC [6] | Activity (Trypanosoma cruzi [7]) | Ratio (Trypanosoma cruzi [8]) |
| --- | --- | --- | --- | --- | --- | --- | --- | --- | --- | --- | --- | --- | --- | --- | --- | --- | --- |
| O=C(/C=C/c1ccco1)N1CCN(C/C=C/c2ccccc2)CC1 | < 4.60 | 0.6 µg/mL |  |  |  |  |  |  |  |  |  |  |  |  |  |  |  |
| O=C(/C=C/c1ccc([N+](=O)[O-])o1)NCCO | 5.30 | 0.6 µg/mL |  |  |  |  |  |  |  |  |  |  |  |  |  |  |  |
| C=CCNC(=S)N/N=C/C=C/c1ccc([N+](=O)[O-])o1 | 5.09 | 15.9 µg/mL | 5.19 | 200 µM | 24.4 | > 250 µg/mL | > 250 µg/mL | > 250 µg/mL | > 250 µg/mL | > 250 µg/mL | > 250 µg/mL | > 250 µg/mL | > 250 µg/mL | > 250 µg/mL | > 250 µg/mL | 5.5 µg/mL |  |
| O=C(/C=C/c1ccc([N+](=O)[O-])o1)N1CCN(C/C=C/c2ccccc2)CC1 | 6.00 | 0.6 µg/mL |  |  |  |  |  |  |  |  |  |  |  |  |  |  | 7 |
| C[C@@H]1[C@H](O)[C@@H](C)/C=C/C=C/C=C/C=C/C=C/C=C/C=C/[C@H](O[C@@H]2O[C@H](C)[C@@H](O)[C@H](N)[C@@H]2O)C[C@@H]2O[C@](O)(C[C@@H](O)C[C@@H](O)[C@H](O)CC[C@@H](O)C[C@@H](O)CC(=O)O[C@H]1C)C[C@H](O)[C@H]2C(=O)O [AMPHOTERICIN B] |  |  |  |  |  | 0.5 µg/mL (≈ 0.541 µM) | 0.5 µg/mL (≈ 0.541 µM) | 0.5 µg/mL (≈ 0.541 µM) | 0.25 µg/mL (≈ 0.271 µM) | 0.125 µg/mL (≈ 0.135 µM) | 0.5 µg/mL (≈ 0.541 µM) | 0.25 µg/mL (≈ 0.271 µM) | 0.05 µg/mL (≈ 0.0541 µM) | 0.025 µg/mL (≈ 0.0271 µM) | 0.025 µg/mL (≈ 0.0271 µM) |  |  |
| CC(=O)N1CCN(c2ccc(OCC3COC(Cn4ccnc4)(c4ccc(Cl)cc4Cl)O3)cc2)CC1 (configuration not stated) [KETOCONAZOLE] |  |  |  | < 100 µM | < 10 | 1.56 µg/mL (≈ 2.94 µM) | 1.56 µg/mL (≈ 2.94 µM) | 3.12 µg/mL (≈ 5.87 µM) | 0.39 µg/mL (≈ 0.734 µM) | 0.78 µg/mL (≈ 1.47 µM) | 0.78 µg/mL (≈ 1.47 µM) | 1.56 µg/mL (≈ 2.94 µM) | 0.04 µg/mL (≈ 0.0753 µM) | 0.01 µg/mL (≈ 0.0188 µM) | 0.025 µg/mL (≈ 0.047 µM) |  |  |
| CC1CS(=O)(=O)CCN1/N=C/c1ccc([N+](=O)[O-])o1 (configuration not stated) [NIFURTIMOX] |  | 0.6 µg/mL |  | 316 µM | 41 |  |  |  |  |  |  |  |  |  |  |  |  |
| CN(C/C=C/C#CC(C)(C)C)Cc1cccc2ccccc12 [TERBINAFINE] |  | 12 µg/mL |  | 339 µM | 19.9 | 0.78 µg/mL (≈ 2.68 µM) | 1.56 µg/mL (≈ 5.35 µM) | 0.5 µg/mL (≈ 1.72 µM) | 0.25 µg/mL (≈ 0.858 µM) | 0.5 µg/mL (≈ 1.72 µM) | 0.5 µg/mL (≈ 1.72 µM) | 0.5 µg/mL (≈ 1.72 µM) | 0.125 µg/mL (≈ 0.429 µM) | 0.075 µg/mL (≈ 0.257 µM) | 0.075 µg/mL (≈ 0.257 µM) | 2.7 µg/mL |  |
